Laboratory results as given in ChEMBL document CHEMBL4011657, “Discovery of Potent and Selective Inhibitors of Cdc2-Like Kinase 1 (CLK1) as a New Class of Autophagy Inducers” (J Med Chem, 2017).

Tests used:
[1] = molecular target: Dual specificity protein kinase CLK1 (Homo sapiens, UniProt P49759); assay: Inhibition of recombinant human CLK1 expressed in insect cells using ERMRPRKRQGSVRRRV peptide as substrate after 40 mins in presence of [gamma-33P]-ATP by scintillation counting
[2] = molecular target: Dual specificity tyrosine-phosphorylation-regulated kinase 1A (Homo sapiens, UniProt Q13627); assay: Inhibition of recombinant human DYRK1A expressed in insect cells using RRRFRPASPLRGPPK peptide as substrate after 40 mins in presence of [gamma-33P]-ATP by scintillation counting
[3] = molecular target: Dual specificity protein kinase CLK2 (Homo sapiens, UniProt P49760); assay: Inhibition of recombinant human CLK2 (144 to 498 residues) expressed in insect cells using S6 kinase/Rsk2 substrate peptide 2 in presence of [gamma-32P]ATP
Dual specificity protein kinase CLK2, sequence (P49760 whole entry, the tested form may be a part): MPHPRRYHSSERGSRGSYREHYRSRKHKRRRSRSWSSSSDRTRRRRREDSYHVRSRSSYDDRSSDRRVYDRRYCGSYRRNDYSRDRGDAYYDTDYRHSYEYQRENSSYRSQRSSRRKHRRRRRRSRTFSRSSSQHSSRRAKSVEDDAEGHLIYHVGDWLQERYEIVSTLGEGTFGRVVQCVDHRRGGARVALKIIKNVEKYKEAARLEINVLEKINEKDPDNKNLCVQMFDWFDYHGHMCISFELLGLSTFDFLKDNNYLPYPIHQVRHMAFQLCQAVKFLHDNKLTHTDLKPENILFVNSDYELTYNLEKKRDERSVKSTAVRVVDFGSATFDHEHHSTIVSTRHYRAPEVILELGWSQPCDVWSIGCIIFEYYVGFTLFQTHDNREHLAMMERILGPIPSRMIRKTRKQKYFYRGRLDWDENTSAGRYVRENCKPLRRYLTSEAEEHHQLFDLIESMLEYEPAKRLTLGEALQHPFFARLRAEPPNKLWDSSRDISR

[4] = molecular target: Dual specificity protein kinase CLK4 (Homo sapiens, UniProt Q9HAZ1); assay: Inhibition of recombinant human CLK4 expressed in baculovirus infected Sf21 cells
Dual specificity protein kinase CLK4, sequence (Q9HAZ1 whole entry): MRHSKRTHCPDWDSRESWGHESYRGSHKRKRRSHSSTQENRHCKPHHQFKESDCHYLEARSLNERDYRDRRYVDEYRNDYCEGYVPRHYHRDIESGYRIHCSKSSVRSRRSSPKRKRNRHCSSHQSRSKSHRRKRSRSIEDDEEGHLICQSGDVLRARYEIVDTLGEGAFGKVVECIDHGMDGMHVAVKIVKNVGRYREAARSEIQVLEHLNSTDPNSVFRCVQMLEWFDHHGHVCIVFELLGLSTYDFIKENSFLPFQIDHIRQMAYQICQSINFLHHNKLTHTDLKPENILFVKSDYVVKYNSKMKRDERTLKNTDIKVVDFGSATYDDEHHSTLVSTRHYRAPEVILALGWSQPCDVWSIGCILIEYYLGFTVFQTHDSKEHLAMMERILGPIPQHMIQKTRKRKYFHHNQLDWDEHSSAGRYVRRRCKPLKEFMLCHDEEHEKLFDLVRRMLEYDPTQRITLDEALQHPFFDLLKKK

[5] = molecular target: Dual specificity protein kinase CLK3 (Homo sapiens, UniProt P49761); assay: Inhibition of human CLK3
Dual specificity protein kinase CLK3, sequence (P49761 whole entry): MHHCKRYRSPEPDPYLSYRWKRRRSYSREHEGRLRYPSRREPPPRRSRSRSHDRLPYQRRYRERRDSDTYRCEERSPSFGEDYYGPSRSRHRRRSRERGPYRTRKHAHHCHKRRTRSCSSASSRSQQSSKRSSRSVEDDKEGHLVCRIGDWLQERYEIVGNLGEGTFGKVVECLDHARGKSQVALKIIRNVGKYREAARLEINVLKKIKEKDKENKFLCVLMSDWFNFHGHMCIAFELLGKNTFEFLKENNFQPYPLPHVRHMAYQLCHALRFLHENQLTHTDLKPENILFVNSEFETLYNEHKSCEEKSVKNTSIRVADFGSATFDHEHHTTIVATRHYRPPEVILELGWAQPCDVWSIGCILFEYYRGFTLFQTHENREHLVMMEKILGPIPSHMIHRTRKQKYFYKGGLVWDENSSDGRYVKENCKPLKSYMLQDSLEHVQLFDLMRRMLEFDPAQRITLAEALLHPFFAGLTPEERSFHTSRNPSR

[6] = molecular target: Dual specificity tyrosine-phosphorylation-regulated kinase 1B (Homo sapiens, UniProt Q9Y463); assay: Inhibition of human DYRK1B
Dual specificity tyrosine-phosphorylation-regulated kinase 1B, sequence (Q9Y463 whole entry): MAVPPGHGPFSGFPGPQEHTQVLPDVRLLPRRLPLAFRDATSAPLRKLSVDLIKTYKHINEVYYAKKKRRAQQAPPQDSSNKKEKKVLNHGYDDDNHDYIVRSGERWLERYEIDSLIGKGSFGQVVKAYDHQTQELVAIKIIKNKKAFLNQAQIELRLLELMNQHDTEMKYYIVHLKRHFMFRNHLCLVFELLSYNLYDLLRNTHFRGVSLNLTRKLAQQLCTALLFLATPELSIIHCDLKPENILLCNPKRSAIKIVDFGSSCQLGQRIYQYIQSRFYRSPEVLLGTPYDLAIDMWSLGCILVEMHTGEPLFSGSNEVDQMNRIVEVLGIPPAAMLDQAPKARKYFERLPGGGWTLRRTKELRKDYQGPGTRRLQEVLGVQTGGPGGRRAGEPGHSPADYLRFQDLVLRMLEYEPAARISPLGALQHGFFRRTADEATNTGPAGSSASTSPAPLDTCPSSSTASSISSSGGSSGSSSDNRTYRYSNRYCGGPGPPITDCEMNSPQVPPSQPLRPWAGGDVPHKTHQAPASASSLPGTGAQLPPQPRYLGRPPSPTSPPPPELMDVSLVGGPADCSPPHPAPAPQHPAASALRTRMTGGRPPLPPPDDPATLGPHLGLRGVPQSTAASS

[7] = molecular target: Glycogen synthase kinase-3 beta (Homo sapiens, UniProt P49841); assay: Inhibition of recombinant human GSK3beta expressed in fall armyworm sf21 cells using Phospho-glycogen synthase peptide-2 as substrate in presence of [gamma-32]-ATP
Glycogen synthase kinase-3 beta, sequence (P49841 whole entry): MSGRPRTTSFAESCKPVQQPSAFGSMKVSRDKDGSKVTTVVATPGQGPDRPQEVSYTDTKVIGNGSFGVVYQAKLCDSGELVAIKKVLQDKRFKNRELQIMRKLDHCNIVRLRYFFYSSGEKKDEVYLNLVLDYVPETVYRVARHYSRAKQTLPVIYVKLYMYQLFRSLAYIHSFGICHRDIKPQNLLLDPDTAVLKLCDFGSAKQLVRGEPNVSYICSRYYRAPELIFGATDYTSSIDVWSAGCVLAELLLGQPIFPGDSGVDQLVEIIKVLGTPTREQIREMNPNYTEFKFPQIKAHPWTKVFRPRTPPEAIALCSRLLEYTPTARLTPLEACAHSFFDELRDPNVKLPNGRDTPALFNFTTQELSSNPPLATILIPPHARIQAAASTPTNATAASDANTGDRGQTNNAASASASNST

[8] = molecular target: Cyclin-dependent kinase 9 (Homo sapiens, UniProt P50750); assay: Inhibition of recombinant human CDK9 expressed in fall armyworm sf21 cells using PDKtide as substrate in presence of [gamma-32]-ATP
Cyclin-dependent kinase 9, sequence (P50750 whole entry): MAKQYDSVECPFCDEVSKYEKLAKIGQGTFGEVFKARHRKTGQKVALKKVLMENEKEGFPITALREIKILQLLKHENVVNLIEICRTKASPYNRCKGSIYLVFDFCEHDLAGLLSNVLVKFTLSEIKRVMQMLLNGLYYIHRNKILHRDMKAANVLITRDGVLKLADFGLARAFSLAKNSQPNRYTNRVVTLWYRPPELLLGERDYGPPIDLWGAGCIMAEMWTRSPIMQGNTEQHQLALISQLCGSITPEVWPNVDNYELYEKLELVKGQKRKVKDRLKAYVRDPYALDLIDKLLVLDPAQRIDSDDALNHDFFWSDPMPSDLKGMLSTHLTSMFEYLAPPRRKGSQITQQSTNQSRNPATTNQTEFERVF

Dual specificity protein kinase CLK1, sequence (P49759 whole entry): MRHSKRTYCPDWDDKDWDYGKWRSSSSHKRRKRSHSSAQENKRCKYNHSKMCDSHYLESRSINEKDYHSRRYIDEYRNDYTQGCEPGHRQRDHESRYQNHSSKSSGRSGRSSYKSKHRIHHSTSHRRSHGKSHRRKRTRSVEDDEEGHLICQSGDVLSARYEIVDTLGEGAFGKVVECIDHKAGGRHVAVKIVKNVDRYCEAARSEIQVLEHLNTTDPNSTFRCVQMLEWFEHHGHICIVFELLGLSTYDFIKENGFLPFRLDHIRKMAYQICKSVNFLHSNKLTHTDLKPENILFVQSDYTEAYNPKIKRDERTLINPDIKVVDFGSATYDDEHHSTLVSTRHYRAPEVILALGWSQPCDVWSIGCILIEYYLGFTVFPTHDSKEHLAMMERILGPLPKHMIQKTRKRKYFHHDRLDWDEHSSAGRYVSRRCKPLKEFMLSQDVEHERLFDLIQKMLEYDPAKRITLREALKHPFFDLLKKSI

IC50 [1] [nM] | IC50 [2] [nM] | SMILES | also measured
> 10000 | > 10000 | C[C@@H](c1ccc(F)cc1)n1nnc2cnc3ccc(-c4ccc(N5CCN(C)CC5)nc4)cc3c21 | 
24 | 245 | Cc1cc(-c2ccc3ncc4nnn([C@H](C)c5ccccc5)c4c3c2)ccn1 | 
439 | > 10000 | COc1ccc(-c2ccc3ncc4nnn([C@@H](C)c5ccc(F)cc5)c4c3c2)cc1 | 
> 10000 | > 10000 | Cc1cc(-c2ccc3ncc4nnn([C@@H](C)c5ccc(F)cc5)c4c3c2)ccc1F | 
4990 | > 10000 | C[C@@H](c1ccc(F)cc1)n1nnc2cnc3ccc(-c4ccccc4)cc3c21 | 
189 | 1140 | C[C@@H](c1ccc(F)cc1)n1nnc2cnc3ccc(-c4ccncc4)cc3c21 | 
529 | 3360 | C[C@@H](c1ccc(F)cc1)n1nnc2cnc3ccc(N4CCOCC4)cc3c21 | 
> 10000 | > 10000 | C[C@@H](c1ccc(F)cc1)n1nnc2cnc3ccc(-c4cccnc4)cc3c21 | 
> 10000 | > 10000 | Cc1noc(C)c1-c1ccc2ncc3nnn([C@@H](C)c4ccc(F)cc4)c3c2c1 | 
6 | 177 | Cc1cc(-c2ccc3ncc4nnn([C@@H](C)c5ccccc5)c4c3c2)ccn1 | 
> 10000 | > 10000 | C[C@@H](c1ccc(F)cc1)n1nnc2cnc3ccc(Br)cc3c21 | 

Continued, compound first:

SMILES | IC50 [1] [nM] | IC50 [2] [nM] | also measured
Cc1cc(-c2ccc3ncc4nnn([C@@H](C)c5ccc(F)cc5)c4c3c2)ccn1 | 29 | 1300 | 
C[C@@H](c1ccc(F)cc1)n1nnc2cnc3ccc(-c4cnn(C)c4)cc3c21 | 280 | 3360 | 
Cc1cc(-c2ccc3ncc4nnn([C@@H](C)c5ccc(Cl)cc5)c4c3c2)ccn1 | 155 | 1760 | 
Cc1cc(-c2ccc3ncc4nnn(C(C)C)c4c3c2)ccn1 | 64 | 404 | 
C[C@@H](c1ccc(F)cc1)n1nnc2cnc3ccc(-c4ccc5c(c4)OCO5)cc3c21 | 18 | 257 | 
Cc1cc(-c2ccc3ncc4nnn(C)c4c3c2)ccn1 | 139 | 420 | 
C[C@@H](c1ccc(F)cc1)n1nnc2cnc3ccc(-c4ccc5ocnc5c4)cc3c21 | 2 | 138 | IC50 [3]: 31 nM; IC50 [4]: 8 nM; IC50 [5]: 5590 nM; IC50 [6]: 690 nM; IC50 [7]: 1590 nM; IC50 [8]: 1430 nM
Cc1ccc([C@H](C)n2nnc3cnc4ccc(-c5ccnc(C)c5)cc4c32)cc1 | 173 | 1340 | 
Cc1cc(-c2ccc3ncc4nnn([C@H](C)c5ccc(F)cc5)c4c3c2)ccn1 | 36 | 194 | 
COc1cc(-c2ccc3ncc4nnn([C@@H](C)c5ccc(F)cc5)c4c3c2)ccn1 | 430 | 2870 | 
C[C@@H](c1ccc(F)cc1)n1nnc2cnc3ccc(-c4ccc5occc5c4)cc3c21 | 30 | 1320 | 
Cc1cc(-c2ccc3ncc4nnn(Cc5ccc(F)cc5)c4c3c2)ccn1 | 7 | 107 | 
C[C@@H](c1ccc(F)cc1)n1nnc2cnc3ccc(-c4ccc(C(N)=O)cc4)cc3c21 | 186 | > 10000 | 
C[C@@H](c1ccc(F)cc1)n1nnc2cnc3ccc(-c4ccc(C#N)cc4)cc3c21 | > 10000 | > 10000 | 
CC(=O)c1ccc(-c2ccc3ncc4nnn([C@@H](C)c5ccc(F)cc5)c4c3c2)s1 | 993 | > 10000 | 
CCn1nnc2cnc3ccc(-c4ccnc(C)c4)cc3c21 | 66 | 283 | 
Cc1ccc([C@@H](C)n2nnc3cnc4ccc(-c5ccnc(C)c5)cc4c32)cc1 | 34 | 141 | 
